# pIC50: −log10 of the molar value.
# System: JAK kinases (JAK1 and JAK3)
# Assay: JAK inhibition: IL-4-stimulated CD23 upregulation in human Ramos B-cells, FACS
# Type: cell-based
# Details: IL-4 stimulated Ramos B-cells, read-out: IC50, inhibition of JAK kinases in cellular assay
# Description: JAK inhibition was tested in human Ramos B-cells activated with IL-4. Twenty to 24 hours post stimulation, the cells are stained for upregulation of CD23 and analyzed by FACS. Stimulation of the B-cells with IL-4 leads to the activation of the JAK/STAT pathway through phosphorylation of the JAK kinase JAK1 and JAK3, which in turn phosphorylate and activate transcription of factor […].
# For the assay, human Ramos B-cells (ATCC, Catalog No. CRL-1596) are cultured in RPMI 1640 medium (Cellgro, Catalog No. 10-040-CM) containing 10% fetal bovine serum (JRH, Catalog No. 12106-500M) according to the propagation protocol supplied with the cells, and maintained at a density of approximately 3.5×10^5 cells/ml. The day before the assay, the cells are diluted to 3.5×10^5 cells/ml to insure they are in the logarithmic growth phase. The cells are spun down, and suspended in RPMI 1640 medium containing 5% fetal bovine serum to a density of 3.5×10^4 cells/ml and aliquots dispensed into a 96-well tissue culture plate. Cells are incubated with test compound (dissolved in DMSO) or DMSO (control) for 1 hr at 37° C. and then stimulated with IL-4 (Pepotech, Catalog No. 200-04) for 20-24 hours (final concentration is 50 Units/ml). Cells are then spun down, stained with anti-CD23-PE antibody (BD Pharmigen, Catalog No. 555711) and analyzed by FACS.
row,SMILES,pIC50
1,"COc1cc2nc(Nc3cccc(O)c3)nc(NC3C4C=CC(C4)C3C(N)=O)c2cc1OC (racemic) [Compound 101, Racemic-(2-exo,3-exo)-N4-(3-aminocarbonylbicyclo[2.2. 1]hept-5-en-2-yl)-6,7-dimethoxy-N2-(3-hydroxy)phenyl-2,4-quinazoline-diamine]",> 5.30
2,"NC(=O)C1C2C=CC(C2)C1Nc1nc(Nc2cccc(O)c2)nc2ccccc12 (racemic) [Compound 102, Racemic-(2-exo,3-exo)-N4-(3-aminocarbonylbicyclo[2.2. 1]hept-5-en-2-yl)-N2-(3-hydroxy)phenyl-2,4-quinazoline-diamine]",> 5.30
3,"NC(=O)c1cccc(Nc2nc(NC3C4C=CC(C4)C3C(N)=O)c3nc[nH]c3n2)c1 (racemic) [Compound 122, Racemic-(2-exo,3-exo)-N6-(3-aminocarbonylbicyclo[2.2. 1]hept-5-en-2-yl)-N2-(3-aminocarbonyl)phenyl-1H-purine-2,6-diamine]",> 5.30

# Now from value to molecule:
row,pIC50,SMILES
1,< 5.00,"NC(=O)C1C2CCC(C2)C1Nc1nc(Nc2ccc(N3CCCCC3)cc2)nc2[nH]ccc12 (racemic) [Compound 168, Racemic-(2-exo,3-exo) N4-(3-aminocarbonylbicyclo[2.2. 1]hept-2-yl)-N2-[4-(piperidin-1-yl)phenyl]-1H-pyrrlol[2,3-d]pyrimidine-2,4-diamine]"
2,< 5.00,"NC(=O)C1C2C=CC(C2)C1Nc1nc(Nc2ccc3c(c2)OCO3)nc2[nH]cnc12 (racemic) [Compound 125, Racemic-(2-exo,3-exo)-N6-(3-aminocarbonylbicyclo[2.2. 1]hept-5-en-2-yl)-N2-(1,3-benzodioxol-5-yl)-1H-purine-2,6-diamine]"
3,< 5.00,"Cc1cc2cc(Nc3nc(NC4C5C=CC(C5)C4C(N)=O)c4nc[nH]c4n3)ccc2[nH]1 (racemic) [Compound 150, Racemic-(2-exo,3-exo-)-N6-(3-aminocarbonylbicyclo[2.2. 1]hept-5-en-2-yl)-N2-(2-methyl-1H-indol-5-yl)-1H-purine-2,6-diamine]"
4,> 5.30,"NC(=O)[C@@H]1[C@H](Nc2nc(Nc3ccc4[nH]ccc4c3)nc3[nH]cnc23)[C@H]2C=C[C@@H]1C2 [Compound 147, (1R,2R,3S,4S)-N6-(3-Aminocarbonylbicyclo[2.2. 1]hept-5-en-2-yl)-N2-(1H-indol-5-yl)-1H-purine-2,6-diamine]"

# — patent US7601713B2, “Kinase inhibitors and their uses” (Rigel Pharmaceuticals, Inc., priority 2005, dated 2009)
